Data as given in US5041567A, “Antibacterial monic acid derivatives” (Beecham Group plc, priority 1982, dated 1991).
≈ marks a conversion by molar mass, not a printed value. Read-outs that look alike come from different tables or passages of the source.

Key:
Bord. bronchiseptica B09 = experiment: MIC against veterinary bacteria in vitro; details: Bordetella bronchiseptica, B09, 18 h
Description: (§1) The activity of the compounds of the Examples against various veterinarily important bacteria, was assayed in vitro using two-fold serial dilutions in Diagnostic Sensitivity Test Agar inoculated with 10^4 organisms.

Strep. pneumoniae CN33 = experiment: MIC against human bacteria in vitro; format: cell-based; details: Streptococcus pneumoniae
Staph. aureus Russell = experiment: MIC against human bacteria in vitro; format: cell-based; details: Staphylococcus aureus; Staph. aureus Russell; 5% chocolated horse blood agar, 18 hours; read-out: MIC
[1] = test system: M. suipneumoniae NCTC 10110; experiment: MIC against mycoplasma in vitro; format: cell-based; details: Mesomycoplasma hyopneumoniae, NCTC10110, 144 h
[2] = test system: Pasteurella multocida 1633; experiment: MIC against human bacteria in vitro; format: cell-based; details: Pasteurella multocida 1633; 5% chocolated horse blood agar, 18 hours; read-out: MIC
[3] = test system: Staph. aureus 152 (pen. sens); experiment: MIC against veterinary bacteria in vitro; details: Staphylococcus aureus, 18 h
Description: as §1

[4] = test system: Haemophilus influenzae Wy21; experiment: MIC against human bacteria in vitro; format: cell-based; details: Haemophilus influenzae Wy21; 5% chocolated horse blood agar, 18 hours; read-out: MIC
S. dublin S7 = experiment: MIC against veterinary bacteria in vitro; details: Salmonella enterica, S7, 18 h
Description: as §1

[5] = test system: Ps. aeruginosa NCTC 10662; experiment: MIC against human bacteria in vitro; format: cell-based; details: Pseudomonas aeruginosa, NCTC10662; Ps. aeruginosa NCTC 10662; 5% chocolated horse blood agar, 18 hours; read-out: MIC
Strep. agalactiae SPA1 = experiment: MIC against veterinary bacteria in vitro; details: Streptococcus agalactiae, SPA1, 18 h
Description: as §1

M. pneumoniae ATCC 15492 = experiment: MIC against mycoplasma in vitro; format: cell-based; details: Mycoplasmoides pneumoniae, ATCC15492, 144 h; M. pneumoniae ATCC 15492; 6 days, 37° C.; read-out: MIC
Past. multocida PA2 = experiment: MIC against veterinary bacteria in vitro; details: Pasteurella multocida, PA2, 18 h
Description: as §1

[6] = test system: Erysipelothrix rhusiopathiae NCTC 8163; experiment: MIC against veterinary bacteria in vitro; details: Erysipelothrix rhusiopathiae, NCTC8163, 18 h
Description: as §1

Sarcina lutea 8340 = experiment: MIC against human bacteria in vitro; format: cell-based; details: Micrococcus luteus; Sarcina lutea 8340; 5% chocolated horse blood agar, 18 hours; read-out: MIC
Strep. agalactiae 2788-B = experiment: MIC against human bacteria in vitro; format: cell-based; details: Streptococcus agalactiae; Strep. agalactiae 2788-B; 5% chocolated horse blood agar, 18 hours; read-out: MIC
M. suipneumoniae HK(2) = experiment: MIC against mycoplasma in vitro; format: cell-based; details: Mesomycoplasma hyopneumoniae, 144 h
E. coli E1 = experiment: MIC against veterinary bacteria in vitro; details: Escherichia coli, E1, 18 h
Description: as §1

Staph. aureus W2827 = experiment: MIC against human bacteria in vitro; format: cell-based; details: Staphylococcus aureus; Staph. aureus W2827; 5% chocolated horse blood agar, 18 hours; read-out: MIC
M. suipneumoniae MS 16 = experiment: MIC against mycoplasma in vitro; format: cell-based; details: Mesomycoplasma hyopneumoniae, MS16, 144 h
M. gallisepticum S6 = experiment: MIC against mycoplasma in vitro; format: cell-based; details: Mycoplasmoides gallisepticum, 144 h; M. gallisepticum S6; 6 days, 37° C.; read-out: MIC
M. suipneumoniae JF 435 = experiment: MIC against mycoplasma in vitro; format: cell-based; details: Mesomycoplasma hyopneumoniae, JF435, 144 h
M. suipneumoniae NB12 = experiment: MIC against mycoplasma in vitro; format: cell-based; details: Mesomycoplasma hyopneumoniae
Staph. aureus Oxford = experiment: MIC against veterinary bacteria in vitro; details: Staphylococcus aureus, 18 h
Description: as §1

[7] = test system: M. suipneumoniae ATCC 25095; experiment: MIC against mycoplasma in vitro; format: cell-based; details: Mesomycoplasma hyopneumoniae, ATCC25095, 144 h
M. suipneumoniae UCD 1 = experiment: MIC against mycoplasma in vitro; format: cell-based; details: Mesomycoplasma hyopneumoniae, UCD1, 144 h
E. coli ESS = experiment: MIC against human bacteria in vitro; format: cell-based; details: Escherichia coli; E. coli ESS; 5% chocolated horse blood agar, 18 hours; read-out: MIC
E. coli NCTC 10418 = experiment: MIC against veterinary bacteria in vitro; details: Escherichia coli, NCTC10418, 18 h
Description: as §1

Strep. spp. 64/848-C = experiment: MIC against human bacteria in vitro; format: cell-based; details: Strep. spp. 64/848-C; 5% chocolated horse blood agar, 18 hours; read-out: MIC
S. typhimurium S18 = experiment: MIC against veterinary bacteria in vitro; details: Salmonella enterica, TYPHIMURIUM, 18 h
Description: as §1

M. hyorhinis ATCC 23234 = experiment: MIC against mycoplasma in vitro; format: cell-based; details: Mesomycoplasma hyorhinis, ATCC23234, 144 h
[8] = test system: Strep. suis (group D) SPS11; experiment: MIC against veterinary bacteria in vitro; details: Streptococcus suis, 18 h
Description: as §1

M. suipneumoniae TAM 6N = experiment: MIC against mycoplasma in vitro; format: cell-based; details: Mesomycoplasma hyopneumoniae, TAM6N, 144 h
Bord. bronchiseptica B08 = experiment: MIC against veterinary bacteria in vitro; details: Bordetella bronchiseptica, B08, 18 h
Description: as §1

[9] = test system: M. bovigenitalium ATCC 14173; experiment: MIC against mycoplasma in vitro; format: cell-based; details: 144 h

Row | Structure (SMILES) | MIC (Bord. bronchiseptica B09) [µg/mL] | MIC (Staph. aureus Russell) [µg/mL] | MIC [2] [µg/mL] | MIC [3] [µg/mL] | MIC [4] [µg/mL] | MIC (S. dublin S7) [µg/mL] | MIC [5] [µg/mL] | MIC (Past. multocida PA2) [µg/mL] | MIC [6] [µg/mL] | MIC (Sarcina lutea 8340) [µg/mL] | MIC (Strep. agalactiae 2788-B) [µg/mL] | MIC (E. coli E1) [µg/mL] | MIC (Staph. aureus W2827) [µg/mL] | MIC (M. gallisepticum S6) [µg/mL] | MIC (Staph. aureus Oxford) [µg/mL] | MIC (E. coli ESS) [µg/mL] | MIC (E. coli NCTC 10418) [µg/mL] | MIC (Strep. spp. 64/848-C) [µg/mL] | MIC (S. typhimurium S18) [µg/mL] | MIC [8] [µg/mL] | also measured
1 | C/C(=C\c1nc(-c2ccccc2)c(-c2ccccc2)o1)C[C@@H]1OC[C@H](C[C@@H]2O[C@H]2[C@@H](C)[C@H](C)O)[C@@H](O)[C@H]1O [Example 41, 4,5-Diphenyl-2-(1-normon-2-yl)oxazole A] | > 80 | > 100 | 25 (≈ 48.1 µM) | 40 (≈ 77 µM) | 25 (≈ 48.1 µM) | > 80 | > 100 | 20 (≈ 38.5 µM) | > 80 | > 100 | > 100 | > 80 | > 100 | > 10 | 40 (≈ 77 µM) | 50 (≈ 96.2 µM) | > 80 | 100 (≈ 192 µM) | > 80 | > 80 | MIC (Strep. pneumoniae CN33; CN33, 18 h): > 100 µg/mL; MIC ([1]; M. suipneumoniae NCTC 10110, 6 days, 37° C., read-out: MIC): > 10 µg/mL; MIC (Strep. agalactiae SPA1): 40 µg/mL (≈ 77 µM); MIC (M. pneumoniae ATCC 15492): > 10 µg/mL; MIC (M. suipneumoniae HK(2); M. suipneumoniae HK(2), 6 days, 37° C., read-out: MIC): > 10 µg/mL; MIC (M. suipneumoniae MS 16; M. suipneumoniae MS 16, 6 days, 37° C., read-out: MIC): > 10 µg/mL; MIC (M. suipneumoniae JF 435; M. suipneumoniae JF 435, 6 days, 37° C., read-out: MIC): > 10 µg/mL; MIC (M. suipneumoniae NB12; 144 h, M. suipneumoniae NB12, Friis broth, 0.9% agarose, 6 days, 37° C., read-out: MIC): > 10 µg/mL; MIC ([7]; M. suipneumoniae ATCC 25095, 6 days, 37° C., read-out: MIC): > 10 µg/mL; MIC (M. suipneumoniae UCD 1; M. suipneumoniae UCD 1, 6 days, 37° C., read-out: MIC): > 10 µg/mL; MIC (M. hyorhinis ATCC 23234; M. hyorhinis ATCC 23234, 6 days, 37° C., read-out: MIC): > 10 µg/mL; MIC (M. suipneumoniae TAM 6N; M. suipneumoniae TAM 6N, 6 days, 37° C., read-out: MIC): > 10 µg/mL; MIC (Bord. bronchiseptica B08): > 80 µg/mL; MIC ([9]; M. bovigenitalium ATCC 14173, 6 days, 37° C., read-out: MIC): 5 µg/mL (≈ 9.62 µM)
2 | COc1ccc(-c2cnc(/C=C(\C)C[C@@H]3OC[C@H](C[C@@H]4O[C@H]4[C@@H](C)[C@H](C)O)[C@@H](O)[C@H]3O)o2)cc1 [Example 4, 5-p-methoxyphenyl-2-(1-normon-2-yl)oxazole A] | 20 (≈ 42.2 µM) | 5 (≈ 10.6 µM) | 25 (≈ 52.8 µM) | 5 (≈ 10.6 µM) | 2.5 (≈ 5.28 µM) | > 80 | > 100 | 5 (≈ 10.6 µM) | > 80 | > 100 | 5 (≈ 10.6 µM) | > 80 | 5 (≈ 10.6 µM) | 2.5 (≈ 5.28 µM) | 0.625 (≈ 1.32 µM) | 2.5 (≈ 5.28 µM) | > 80 | 5 (≈ 10.6 µM) | > 80 | 20 (≈ 42.2 µM) | MIC (Strep. pneumoniae CN33; Strep. pneumoniae CN33, 5% chocolated horse blood agar, 18 hours, read-out: MIC): 5 µg/mL (≈ 10.6 µM); MIC [1]: 1 µg/mL (≈ 2.11 µM); MIC (M. suipneumoniae HK(2)): 1 µg/mL (≈ 2.11 µM); MIC (M. suipneumoniae MS 16): 0.5 µg/mL (≈ 1.06 µM); MIC (M. suipneumoniae JF 435): 1 µg/mL (≈ 2.11 µM); MIC (M. suipneumoniae NB12; NB12, 144 h): 0.5 µg/mL (≈ 1.06 µM); MIC [7]: 0.5 µg/mL (≈ 1.06 µM); MIC (M. suipneumoniae UCD 1): 1 µg/mL (≈ 2.11 µM); MIC (M. hyorhinis ATCC 23234): 0.5 µg/mL (≈ 1.06 µM); MIC (M. suipneumoniae TAM 6N): 1 µg/mL (≈ 2.11 µM); MIC (Bord. bronchiseptica B08): > 80 µg/mL; MIC [9]: 0.05 µg/mL (≈ 0.106 µM)
